Columns and labels:
[1] = test system: lymphocytes in lamina propria lymphoid aggregates; test: BrdU immunohistochemistry of lymphocyte proliferation in lamina propria lymphoid aggregates; type: in vivo, mice; settings: 4 days and 6 days after TNBS
Method: Lymphocyte proliferation was determined by BrdU labeling of lamina propria lymphoid aggregates of mice treated with Trinitrobenzene Sulfonic Acid enemas plus subcutaneous pellets containing 1-methyl-tryptophan.
BrdU immunohistochemistry was performed to measure cellular proliferation in hypertrophied lymphoid aggregates within the lamina propria of Trinitrobenzene Sulfonic Acid ±1-methyl-tryptophan treated mice. Mice were given rectal Trinitrobenzene Sulfonic Acid and subcutaneous pellets containing 1-methyl-tryptophan or placebo. Groups of mice were sacrificed at 4 days and 6 days after Trinitrobenzene Sulfonic Acid administration. Each mouse received BrdU two hours prior to sacrifice in order to label the S-phase cells. Four micro paraffin sections were prepared from the inflamed colon segments with macroscopically visible hypertrophied colonic patches then labeling was performed as previously described in Riehl, Gasteroenterology, 118: 1106-16, 2000.

TNBS colitis = TNBS colitis treated with CTLA-4-Ig with or without 1-mT: weight, survival, clinical characteristics, histological and morphological scoring; type: in vivo, SJL/J mice
interleukin (IL)-2 mRNA = test: Real-time PCR of colonic IL-2 mRNA; settings: 4 days after TNBS
IL-1 mRNA = test: Real-time PCR of colonic IL-1 mRNA; settings: 4 days after TNBS
[2] = test system: Trinitrobenzene Sulfonic Acid colitis; settings: mouse, in vivo
TGFβ1 mRNA = test: Real-time PCR of colonic TGFβ / TGFβ1 mRNA
[3] = test system: Forkhead box P3 (Foxp3) mRNA; test: Real-time PCR of colonic Foxp3 mRNA; type: in vivo, mouse; settings: Day 4 of TNBS colitis
[4] = test system: indoleamine 2,3-dioxygenase protein; test: Western blotting of indoleamine 2,3-dioxygenase protein in distal colon lysates; type: in vivo, mouse; settings: four days after TNBS, 1-mT versus placebo
Method: (§1) Six week old female SJL/J mice weighing approximately 20 grams, which were maintained at a controlled temperature and light/dark cycle in a pathogen free facility, were anesthetized with an intraperitoneal injection of a 10% Ketamine/Xylazine mixture. […] Mice were sacrificed 4 days after treatment for determination of indoleamine 2,3-dioxygenase protein and mRNA levels.
Western blotting (Bio-Rad, Hercules, Calif.) for determining indoleamine 2,3-dioxygenase protein amount was performed on whole colon lysates obtained from the distal colons of both control mice and mice treated with Trinitrobenzene Sulfonic Acid. For Lamina Propria Mononuclear cells, 1×10^6 cells were concentrated and loaded per lane. The samples were denatured and separated on an 8% Sodium Dodecyl Sulphate-Polyacrylamide (SDS-PAGE) gel. After electrophoresis, the separated proteins were then transferred to an Immobilon-P Transfer Membrane (Millipore, Be-dford, Mass.). […] The secondary antibodies were donkey anti-rabbit linked to horseradish peroxidase. After probing for indoleamine 2,3-dioxygenase protein, the membranes were stripped and reprobed for β-actin, which was used in addition to the protein assay to ensure equal protein loading.
Western blotting for indoleamine 2,3-dioxygenase was performed as follows. […] The protein was detected using ECL (Amersham). […]

[5] = test system: indoleamine 2,3-dioxygenase mRNA; test: Real-time PCR of indoleamine 2,3-dioxygenase mRNA in distal colon; type: in vivo, SJL/J mouse; settings: TNBS colitis, Day 4; PBS 8 fold
Excerpt: as §1

TNFα mRNA = test: Real-time PCR of colonic TNFα mRNA; type: in vivo, mouse; settings: TNBS colitis, Day 4; PBS 5 fold
IL-12 mRNA = test: Real-time PCR of colonic IL-12 mRNA; settings: 4 days after TNBS, Example 5; placebo 20-fold
IFN-γ mRNA = test: Real-time PCR of colonic IFN-γ mRNA
[6] = test system: indoleamine 2,3-dioxygenase in lamina propria mononuclear cells; test: IDO expression in cultured colonic lamina propria mononuclear cells incubated with rIFN-γ and/or LPS; type: cell-based, mouse

## Cn1cc(C[C@H](N)C(=O)O)c2ccccc21 [1-mT, 1-methyltryptophan]
[1]
  S phase lymphocytes in lymphoid aggregates (BrdU) versus placebo: significantly more S phase lymphocytes
TNBS colitis; Day 4 of TNBS, PBS 2.9
  morphological score: 4.2
TNBS colitis; Day 4 of TNBS, PBS 5.4
  histological score: 6.6
TNBS colitis; TNBS, Day 4
  histology of distal colon: more transmural inflammation, loss of tissue architecture and vasculature, and outright necrosis
TNBS colitis; TNBS, by Day 4, PBS+TNBS 75%
  survival rate: 62.5%
TNBS colitis; TNBS, TNBS+PBS 7/9
  surviving animals with clinical characteristics of active TNBS colitis (hunched, piloerection), number of animals: 4/5
TNBS colitis; TNBS, TNBS+PBS 78%
  surviving animals with clinical characteristics of TNBS colitis: 80%
TNBS colitis; mouse, in vivo
  mortality (animals dead of animals treated): 3 of 8
  mortality rate: 37%
Interleukin (IL)-2 mRNA
  IL-2 expression versus TNBS and placebo: significantly higher expression by orders of magnitude
IL-1 mRNA
  IL-1 mRNA levels versus TNBS alone: markedly increased
[2]
  effect on colonic morphology: no effect on colonic morphology
  gross morphology of colon versus placebo: significant gross morphologic differences
  histologic appearance versus placebo: no significant histologic differences
  histologic scores versus placebo: significantly higher
  survival rate: 100%
[2]; sc
  survival at 7 days after Trinitrobenzene Sulfonic Acid administration: 20%
TGFβ1 mRNA; 4 days after TNBS, Example 5, placebo about half of control
  expression of TGFβ: 1.5 times control values
TGFβ1 mRNA; Day 4 of TNBS colitis
  TGFβ1 mRNA induction: 0.8 fold
[3]
  induction of Foxp3 mRNA: 11 fold
[4]
  colonic indoleamine 2,3-dioxygenase protein amount: no difference
[5]
  increase in IDO mRNA expression over controls: 2 fold
TNFα mRNA
  TNFα mRNA induction: 16 fold
IL-12 mRNA
  IL-12 expression increase over baseline: 120 fold
IFN-γ mRNA; 4 days after TNBS, Example 5, placebo 8-fold
  IFN-γ expression increase over baseline: 75 fold
IFN-γ mRNA; TNBS colitis, Day 4
  induction of IFN-γ mRNA: 15 fold

## rIFN-γ: recombinant interferon-γ (R&D systems)
[6]; B220+ enriched lamina propria mononuclear cell population
  indoleamine 2,3-dioxygenase expression after incubation: did express indoleamine 2,3-dioxygenase after incubation
[6]; B220-/MHCII- lamina propria mononuclear cell population
  indoleamine 2,3-dioxygenase expression after incubation: increased after incubation
[6]; MHCII+/B220- lamina propria mononuclear cell population
  indoleamine 2,3-dioxygenase expression after incubation: further induced
[6]; colon lamina propria mononuclear cells from STAT1-/- animals
  indoleamine 2,3-dioxygenase protein induction: severely blunted indoleamine 2,3-dioxygenase protein induction
[6]; colonic lamina propria mononuclear cells from C57BL/6 mice, 24 hours
  indoleamine 2,3-dioxygenase induction: increased significantly
[6]; lamina propria mononuclear cells
  concentration required to maximally increase indoleamine 2,3-dioxygenase protein: less than 1 ng/ml
[6]; unfractionated lamina propria mononuclear cells of untreated mice, 30 ng/mL, 24 hours
  indoleamine 2,3-dioxygenase expression after incubation: marked increase

Reference: patent publication US20050238651A1, “Treatment of inflammatory bowel disease” (priority 2003, published 2005)
